Measurements: US9328361B2, “Coryneform bacterium transformant and process for producing phenol using the same” (GREEN PHENOL DEVELOPMENT CO., LTD., priority 2010, dated 2016)
Where two headings read alike, the source gives them in different places.

Columns and labels:
[1] = test system: Corynebacterium glutamicum R; details: aerobic culture, A liquid medium, 33° C.
Procedure: A growth inhibition test in aerobic culture was performed to examine the influence of phenol on Corynebacterium glutamicum, Escherichia coli, and Pseudomonas putida. Pseudomonas putida S12, which was used for the test, is reported to be a solvent-resistant strain. In the report, disclosed is an unparalleled technology using the strain as a host in phenol production. […]
The Corynebacterium glutamicum R grown in the above conditions was inoculated into 100 mL of A liquid media in such a way that the initial bacterial cell concentration would be OD610=0.05, phenol was added at the same time in such a way that the final concentration would be 0, 0.16, 0.2, 0.24, or […], and aerobic culture was performed with shaking at 33° C. The growth of bacterial cells was determined by absorbance measurement at OD610.
Pseudomonas putida F1 and S12 grown in the above conditions were each inoculated into 100 mL of LB (+glucose) liquid medium in such a way that the initial bacterial cell concentration would be OD610=0.05, phenol was added at the same time in such a way that the final concentration would be 0, 0.10, or […], and aerobic culture was performed with shaking at 30° C. The growth of bacterial cells was determined by absorbance measurement at OD610. […]

[2] = test system: Corynebacterium glutamicum R; details: reducing conditions (ORP −450 mV), 8% glucose, 33° C.
Procedure: Corynebacterium glutamicum R was applied to A agar medium and was left stand in the dark at 33° C. for 20 hours.
An inoculation loop of the Corynebacterium glutamicum R grown on a plate as above was inoculated into a test tube containing 10 mL of A liquid medium and was aerobically cultured with shaking at 33° C. for 15 hours.
The Corynebacterium glutamicum R grown in the above conditions was inoculated into a 2 L-conical flask containing 500 mL of A liquid medium and was aerobically cultured with shaking at 33° C. for 15 hours.
The bacterial cells cultured and proliferated as above were collected by centrifugation (5,000×g at 4° C. for 15 minutes). The obtained bacterial cells were suspended in BT (-urea) liquid medium (0.7% ammonium sulfate, 0.05% potassium dihydrogen phosphate, 0.05% dipotassium hydrogen phosphate, 0.05% magnesium sulfate heptahydrate, 0.0006% iron sulfate heptahydrate, 0.00042% manganese sulfate hydrate, 0.00002% biotin and 0.00002% thiamine hydrochloride) so that the concentration of the bacterial cell was 10% (w/v). […] During the reaction, 2.5 N aqueous ammonia was added with the use of a pH controller (Type: DT-1023 made by Able) to avoid the pH of the reaction mixture falling below 7.0.

Pseudomonas putida S12 = details: aerobic culture, LB (+glucose) liquid medium, 30° C.
Procedure: (§1) A growth inhibition test in aerobic culture was performed to examine the influence of phenol on Corynebacterium glutamicum, Escherichia coli, and Pseudomonas putida. Pseudomonas putida S12, which was used for the test, is reported to be a solvent-resistant strain. In the report, disclosed is an unparalleled technology using the strain as a host in phenol production.
(§2) Pseudomonas putida F1 and S12 were applied to LB agar medium (1% polypeptone, 0.5% yeast extract, 0.5% NaCl and 1.5% agar) and were left stand in the dark at 30° C. for 15 hours.
(§3) An inoculation loop of each of Pseudomonas putida F1 and S12 was inoculated into a test tube containing 10 mL of LB (+glucose) liquid medium (1% polypeptone, 0.5% yeast extract, 0.5% NaCl and 0.4% glucose), and aerobic culture was performed with shaking at 30° C. for 13 hours.
(§4) Pseudomonas putida F1 and S12 grown in the above conditions were each inoculated into 100 mL of LB (+glucose) liquid medium in such a way that the initial bacterial cell concentration would be OD610=0.05, phenol was added at the same time in such a way that the final concentration would be 0, 0.10, or […], and aerobic culture was performed with shaking at 30° C. The growth of bacterial cells was determined by absorbance measurement at OD610. […] The vertical axis of FIG. 1 indicates OD610.

Pseudomonas putida F1 = details: aerobic culture, LB (+glucose) liquid medium, 30° C.
Procedure: as §1, §2, §3, §4

Escherichia coli JM109 = details: aerobic culture, LB liquid medium, 37° C.
Procedure: as §1
Escherichia coli JM109 was applied to LB agar medium (1% polypeptone, 0.5% yeast extract, 0.5% NaCl and 1.5% agar) and was left stand in the dark at 37° C. for 15 hours.
The growth of bacterial cells was determined by absorbance measurement at OD610.
as §4

For `Oc1ccccc1` [phenol], the “proliferation of Corynebacterium glutamicum” value ([1]; 0.16% phenol) was “hardly affected”, the “proliferation of Corynebacterium glutamicum” value ([1]; 0.20% phenol) was “favorable growth” and the “influence on saccharide consumption” value ([2]; 0.24% phenol) was “no influence of phenol was observed”. For the same molecule, the saccharide consumption ([2]; 0.38% phenol) was “saccharide consumption was observed”, the saccharide consumption ([2]; 0.46% phenol) was “slightly observed” and the “proliferation of Pseudomonas putida S12” value (Pseudomonas putida S12; 0.10% phenol) was “significantly affected”. For the same molecule, the “proliferation of Pseudomonas putida S12” value (Pseudomonas putida S12; 0.20% phenol) was “completely inhibited”, the “proliferation of Pseudomonas putida F1” value (Pseudomonas putida F1; 0.10% phenol) was “significantly affected” and the “proliferation of Pseudomonas putida F1” value (Pseudomonas putida F1; 0.20% phenol) was “completely inhibited”. For the same molecule, the “proliferation of Escherichia coli” value (Escherichia coli JM109; 0.16% phenol) was “significantly affected” and the “proliferation of Escherichia coli” value (Escherichia coli JM109; 0.20% phenol) was “completely inhibited”.
